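Compound exposure: 48 hours, 5 concentrations, 96-well plates. TGI is the concentration that stops growth completely.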
Key:
Experiment in all cases: DTP human tumour cell line panel, 48 h
NCI/ADR-RES ovarian = test system: NCI/ADR-RES ovarian
SNB-19 CNS = test system: SNB-19 CNS
NCI-H460 lung = test system: NCI-H460 lung
MDA-N = test system: MDA-N
SK-OV-3 ovarian = test system: SK-OV-3 ovarian
CAKI-1 renal = test system: CAKI-1 renal
UACC-62 melanoma = test system: UACC-62 melanoma
MALME-3M melanoma = test system: MALME-3M melanoma
COLO 205 colon = test system: COLO 205 colon
OVCAR-8 ovarian = test system: OVCAR-8 ovarian
ACHN renal = test system: ACHN renal
OVCAR-3 ovarian = test system: OVCAR-3 ovarian
TK-10 renal = test system: TK-10 renal
HOP-62 NSCLC = test system: HOP-62 NSCLC
HS 578T breast = test system: HS 578T breast
PC-3 prostate = test system: PC-3 prostate
OVCAR-5 ovarian = test system: OVCAR-5 ovarian
SF-268 CNS = test system: SF-268 CNS
SK-MEL-5 melanoma = test system: SK-MEL-5 melanoma
MDA-MB-435 = test system: MDA-MB-435
LOX IMVI melanoma = test system: LOX IMVI melanoma
786-0 renal = test system: 786-0 renal
MOLT-4 leukemia = test system: MOLT-4 leukemia
OVCAR-4 ovarian = test system: OVCAR-4 ovarian
SN12C renal = test system: SN12C renal
MCF7 breast = test system: MCF7 breast
IGROV1 ovarian = test system: IGROV1 ovarian
NCI-H23 lung = test system: NCI-H23 lung
HCT-116 colon = test system: HCT-116 colon
SF-295 CNS = test system: SF-295 CNS
KM12 colon = test system: KM12 colon
T-47D breast = test system: T-47D breast
SR leukemia = test system: SR leukemia
A549 NSCLC = test system: A549 NSCLC
HCC-2998 colon = test system: HCC-2998 colon
UO-31 renal = test system: UO-31 renal
CCRF-CEM leukemia = test system: CCRF-CEM leukemia
K-562 leukemia = test system: K-562 leukemia
SW-620 colon = test system: SW-620 colon
DU-145 prostate = test system: DU-145 prostate
UACC-257 melanoma = test system: UACC-257 melanoma
NCI-H226 lung = test system: NCI-H226 lung
SNB-75 CNS = test system: SNB-75 CNS
EKVX NSCLC = test system: EKVX NSCLC
SK-MEL-28 melanoma = test system: SK-MEL-28 melanoma
HOP-92 NSCLC = test system: HOP-92 NSCLC
HT29 colon = test system: HT29 colon
M14 melanoma = test system: M14 melanoma
A498 renal = test system: A498 renal
SK-MEL-2 melanoma = test system: SK-MEL-2 melanoma
RXF 393 renal = test system: RXF 393 renal
RPMI-8226 leukemia = test system: RPMI-8226 leukemia
SF-539 CNS = test system: SF-539 CNS
NCI-H522 lung = test system: NCI-H522 lung
HCT-15 colon = test system: HCT-15 colon
U251 CNS = test system: U251 CNS
MDA-MB-231 breast = test system: MDA-MB-231 breast
HL-60(TB) leukemia = test system: HL-60(TB) leukemia
BT-549 breast = test system: BT-549 breast

CCn1c(O)c(C=Nc2ccccc2)s/c1=N/Nc1ncc(CC(=O)Nc2ccccc2C)s1
TGI (NCI/ADR-RES ovarian): > 100 µM | TGI (SNB-19 CNS): > 100 µM | TGI (NCI-H460 lung): > 100 µM | TGI (MDA-N): > 100 µM | TGI (SK-OV-3 ovarian): > 100 µM | TGI (CAKI-1 renal): > 100 µM | TGI (UACC-62 melanoma): > 100 µM | TGI (MALME-3M melanoma): > 100 µM | TGI (COLO 205 colon): > 100 µM | TGI (OVCAR-8 ovarian): > 100 µM | TGI (ACHN renal): > 100 µM | TGI (OVCAR-3 ovarian): > 100 µM | TGI (TK-10 renal): > 100 µM | TGI (HOP-62 NSCLC): > 100 µM | TGI (HS 578T breast): > 100 µM | TGI (PC-3 prostate): > 100 µM | TGI (OVCAR-5 ovarian): > 100 µM | TGI (SF-268 CNS): > 100 µM | TGI (SK-MEL-5 melanoma): > 100 µM | TGI (MDA-MB-435): > 100 µM | TGI (LOX IMVI melanoma): > 100 µM | TGI (786-0 renal): > 100 µM | TGI (MOLT-4 leukemia): > 100 µM | TGI (OVCAR-4 ovarian): > 100 µM | TGI (SN12C renal): > 100 µM | TGI (MCF7 breast): > 100 µM | TGI (IGROV1 ovarian): > 100 µM | TGI (NCI-H23 lung): > 100 µM | TGI (HCT-116 colon): > 100 µM | TGI (SF-295 CNS): > 100 µM | TGI (KM12 colon): > 100 µM | TGI (T-47D breast): > 100 µM | TGI (SR leukemia): > 100 µM | TGI (A549 NSCLC): > 100 µM | TGI (HCC-2998 colon): > 100 µM | TGI (UO-31 renal): > 100 µM | TGI (CCRF-CEM leukemia): > 100 µM | TGI (K-562 leukemia): > 100 µM | TGI (SW-620 colon): > 100 µM | TGI (DU-145 prostate): > 100 µM | TGI (UACC-257 melanoma): > 100 µM | TGI (NCI-H226 lung): > 100 µM | TGI (SNB-75 CNS): > 100 µM | TGI (EKVX NSCLC): > 100 µM | TGI (SK-MEL-28 melanoma): > 100 µM | TGI (HOP-92 NSCLC): > 100 µM | TGI (HT29 colon): > 100 µM | TGI (M14 melanoma): > 100 µM | TGI (A498 renal): > 100 µM | TGI (SK-MEL-2 melanoma): > 100 µM | TGI (RXF 393 renal): > 100 µM | TGI (RPMI-8226 leukemia): > 100 µM | TGI (SF-539 CNS): > 100 µM | TGI (NCI-H522 lung): > 100 µM | TGI (HCT-15 colon): > 100 µM | TGI (U251 CNS): > 100 µM | TGI (MDA-MB-231 breast): > 100 µM | TGI (HL-60(TB) leukemia): > 100 µM

CCOC(=O)C(COS(C)(=O)=O)(COS(C)(=O)=O)C(=O)OCC
TGI (NCI/ADR-RES ovarian): > 100 µM | TGI (SNB-19 CNS): > 100 µM | TGI (NCI-H460 lung): > 100 µM | TGI (MDA-N): > 100 µM | TGI (SK-OV-3 ovarian): > 100 µM | TGI (COLO 205 colon): > 100 µM | TGI (OVCAR-8 ovarian): > 100 µM | TGI (ACHN renal): > 100 µM | TGI (OVCAR-3 ovarian): > 100 µM | TGI (TK-10 renal): > 100 µM | TGI (HS 578T breast): > 100 µM | TGI (PC-3 prostate): > 100 µM | TGI (SF-268 CNS): > 100 µM | TGI (SK-MEL-5 melanoma): > 100 µM | TGI (MDA-MB-435): > 100 µM | TGI (LOX IMVI melanoma): > 100 µM | TGI (MOLT-4 leukemia): > 100 µM | TGI (OVCAR-4 ovarian): > 100 µM | TGI (SN12C renal): > 100 µM | TGI (MCF7 breast): > 100 µM | TGI (NCI-H23 lung): > 100 µM | TGI (HCT-116 colon): > 100 µM | TGI (SF-295 CNS): > 100 µM | TGI (KM12 colon): > 100 µM | TGI (T-47D breast): > 100 µM | TGI (SR leukemia): > 100 µM | TGI (A549 NSCLC): > 100 µM | TGI (HCC-2998 colon): > 100 µM | TGI (UO-31 renal): > 100 µM | TGI (CCRF-CEM leukemia): > 100 µM | TGI (K-562 leukemia): > 100 µM | TGI (SW-620 colon): > 100 µM | TGI (DU-145 prostate): > 100 µM | TGI (UACC-257 melanoma): > 100 µM | TGI (NCI-H226 lung): > 100 µM | TGI (SNB-75 CNS): > 100 µM | TGI (SK-MEL-28 melanoma): > 100 µM | TGI (HOP-92 NSCLC): > 100 µM | TGI (HT29 colon): > 100 µM | TGI (M14 melanoma): > 100 µM | TGI (A498 renal): > 100 µM | TGI (RXF 393 renal): > 100 µM | TGI (NCI-H522 lung): > 100 µM | TGI (HCT-15 colon): > 100 µM | TGI (U251 CNS): > 100 µM | TGI (MDA-MB-231 breast): > 100 µM

O=C1/C(=C/c2ccco2)N=C(c2ccccc2)N1c1ccc(S(=O)(=O)Nc2nccs2)cc1
TGI (NCI/ADR-RES ovarian): > 100 µM | TGI (NCI-H460 lung): > 100 µM | TGI (MDA-N): > 100 µM | TGI (SK-OV-3 ovarian): > 100 µM | TGI (CAKI-1 renal): > 100 µM | TGI (UACC-62 melanoma): > 100 µM | TGI (MALME-3M melanoma): > 100 µM | TGI (COLO 205 colon): > 100 µM | TGI (OVCAR-8 ovarian): > 100 µM | TGI (ACHN renal): > 100 µM | TGI (OVCAR-3 ovarian): > 100 µM | TGI (TK-10 renal): > 100 µM | TGI (HOP-62 NSCLC): > 100 µM | TGI (PC-3 prostate): > 100 µM | TGI (OVCAR-5 ovarian): > 100 µM | TGI (SF-268 CNS): > 100 µM | TGI (SK-MEL-5 melanoma): > 100 µM | TGI (MDA-MB-435): > 100 µM | TGI (LOX IMVI melanoma): > 100 µM | TGI (BT-549 breast): > 100 µM | TGI (786-0 renal): > 100 µM | TGI (MOLT-4 leukemia): > 100 µM | TGI (OVCAR-4 ovarian): > 100 µM | TGI (SN12C renal): > 100 µM | TGI (MCF7 breast): > 100 µM | TGI (IGROV1 ovarian): > 100 µM | TGI (NCI-H23 lung): > 100 µM | TGI (HCT-116 colon): > 100 µM | TGI (SF-295 CNS): > 100 µM | TGI (KM12 colon): > 100 µM | TGI (T-47D breast): > 100 µM | TGI (SR leukemia): > 100 µM | TGI (A549 NSCLC): > 100 µM | TGI (HCC-2998 colon): > 100 µM | TGI (UO-31 renal): > 100 µM | TGI (CCRF-CEM leukemia): > 100 µM | TGI (K-562 leukemia): > 100 µM | TGI (SW-620 colon): > 100 µM | TGI (DU-145 prostate): > 100 µM | TGI (UACC-257 melanoma): 89.5 µM | TGI (NCI-H226 lung): > 100 µM | TGI (SNB-75 CNS): > 100 µM | TGI (EKVX NSCLC): > 100 µM | TGI (HOP-92 NSCLC): > 100 µM | TGI (HT29 colon): > 100 µM | TGI (M14 melanoma): > 100 µM | TGI (SK-MEL-2 melanoma): > 100 µM | TGI (RXF 393 renal): > 100 µM | TGI (RPMI-8226 leukemia): > 100 µM | TGI (SF-539 CNS): > 100 µM | TGI (NCI-H522 lung): > 100 µM | TGI (HCT-15 colon): 94.5 µM | TGI (U251 CNS): > 100 µM | TGI (MDA-MB-231 breast): > 100 µM | TGI (HL-60(TB) leukemia): > 100 µM

Reference: PubChem BioAssay (NCI)
